The values that follow come from PubChem BioAssay (NCI).

What all share (test): NCI-60 cell line screen, 48 h
The subject of assay [1] is A498 renal.
Assay [2] concerns HCC-2998 colon.
In assay [3] the test system is HL-60(TB) leukemia.
The test system of assay [4] is HS 578T breast.
The test system of assay [5] is K-562 leukemia.
For assay [6], the system named is OVCAR-3 ovarian.
For assay [7], the system named is RPMI-8226 leukemia.
The subject of assay [8] is SNB-19 CNS.
Assay [9] has as its system SW-620 colon.
Assay [10] relates to UO-31 renal.

Where “and” joins values, the source holds several entries; their conditions need not be identical. Identical values can stand only once.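 How tested: cells in 96-well plates exposed to compound for 48 hours at five concentrations. At the GI50, growth is halved. TGI: total growth inhibition.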

`COc1ccc(/C=C(/C)[N+](=O)[O-])cc1`: the TGI is 8.28 µM in assay [1]; 3.43 µM in assay [2]; over 21.8 µM in assay [3]; 27.3 µM in [4]; 16 µM in assay [5]; 3.26 µM in assay [6]. In addition, the TGI in assay [7] is 3.75 µM; in assay [8], 17.9 µM; in assay [9] it was over 20.6 µM; in assay [10], 3.15 µM.
As for `COc1ccc(Cl)cc1NC(=O)c1cccc([N+](=O)[O-])c1O`, the TGI in assay [1] was 35.4 µM; in [2] it was 62.1 µM; in [3], over 69.6 µM; in [4], 70.2 µM; in assay [5], over 100 µM; in assay [6] it was 33 µM. Further, the TGI in assay [7] was over 69.5 µM; in assay [8], over 100 µM; in assay [9] it was over 100 µM; in [10], 39.8 µM.
Consider `COc1cc(-c2cc(/C=C3\C(=O)Nc4ccccc43)[nH]n2)cc(OC)c1OC`, for which the GI50 was 2.5 µM in assay [1]; 13.1 µM in [2]; 2.62 µM in assay [3]; 5.43 µM in [4]; 2.65 µM in assay [5]; 3.21 µM in assay [6]. In addition, the GI50 is 1.77 µM in assay [7], 4.13 µM in assay [8], 3.33 µM in assay [9] and 1.91 µM in assay [10]. In addition, the TGI in [1] amounted to 7.71 µM; in [2], 29.4 µM; in [3], 7.66 µM; in assay [4], 62.8 µM; in assay [5], 11.5 µM; in [6], 14.5 µM. Further, the TGI in assay [7] amounted to 4.37 µM; in assay [8], 32.5 µM; in assay [9], 18.9 µM; in assay [10], 12.2 µM.
Regarding `O=C(CNc1ncco1)Nc1ccc(S(=O)(=O)c2ccc(NC(=O)CNc3ncco3)cc2)cc1`, the GI50 in assay [1] is 21.8 µM; in assay [2], 3.44 µM; in assay [3], 4.72 µM; in [4] it was 14.3 µM; in assay [5] it was 2 µM; in assay [6], 1.63 µM. In addition, the GI50 was 1.11 µM in [7], 2.88 µM in [8], 1.75 µM in assay [9] and 3.03 µM in [10]. Moreover, the TGI in assay [1] was 62.7 µM; in assay [2] it was 16.4 µM; in [3], 21.3 µM; in assay [4], over 100 µM; in assay [5] it was 5.95 µM; in [6] it was 3.71 µM. Besides, the TGI in assay [7] is 3.01 µM; in [8], 12.8 µM; in [9] it was 4.13 µM; in assay [10], 17.3 µM.
Regarding `Cc1cccc2c1O/C(=C\c1ccc([N+](=O)[O-])o1)C2=O`, the GI50 in [1] was 1.76 µM; in assay [2], 1.34 µM; in assay [3] it was 1.58 µM; in assay [4], 2.25 µM; in assay [5] it was 0.296 µM; in assay [6], 0.689 µM. Moreover, the GI50 is 0.32 µM in assay [7], 2.7 µM in assay [8], 0.223 µM in assay [9] and 1.09 µM in [10]. In addition, the TGI in [1] was 4.63 µM; in assay [2], 3.91 µM; in assay [3] it was 4.35 µM; in [4], over 25 µM; in [5] it was 1.12 µM; in assay [6] it was 1.89 µM. The TGI in assay [7] is 1.8 µM; in [8] it was over 33 µM; in assay [9], 0.864 µM; in [10] it was 2.49 µM.
For `COc1ccc(-c2nnc(N3CCN(C(=O)CN4CCN(c5ccc(Cl)cc5)CC4)CC3)nc2-c2ccc(OC)cc2)cc1`, the GI50 in [1] was 27.7 µM; in assay [2], 56.8 µM; in assay [3], 10.7 µM; in [4], 23.5 µM; in assay [5], 15.2 µM; in assay [6] it was 28.7 µM. Besides, the GI50 in assay [7] is 5.19 µM; in [8] it was 40.1 µM; in assay [9], 57.9 µM; in assay [10] it was 6.92 µM. For the same molecule, the TGI in assay [1] was 72.2 µM; in assay [2] it was over 100 µM; in assay [3] it was 52.3 µM; in [4] it was over 100 µM; in assay [5], over 100 µM; in [6] it was over 100 µM. The TGI in assay [7], in assay [8], in assay [9] and in assay [10] was over 100 µM each time.
Consider `CC1SC(c2c(Cl)cccc2Cl)N(NC(=O)C(O)c2ccccc2)C1=O` (centres undefined), for which the GI50 in assay [1] is 75.7 µM; in assay [2] it was over 100 µM; in assay [3], 94 µM; in assay [4], over 100 µM; in [5] it was 39.9 µM; in [6], 54.1 µM. In addition, the GI50 in [7] is 35.8 µM; in assay [8], over 100 µM; in [9], over 100 µM; in [10] it was over 100 µM. The TGI in assay [1], in assay [2], in assay [3], in assay [4], in [5] and in assay [6] was over 100 µM throughout. Further, the TGI in assay [7], in [8], in [9] and in [10] was over 100 µM throughout.
As to `O=C1C(=O)c2ccccc2C(O)=C1CC=C(Cl)Cl`, the GI50 in assay [1] is 15.1 µM and 13.9 µM; in [2], 15.3 µM and 13.8 µM; in [3], 3.24 µM and 13.3 µM; in [4], 14 µM and 13.3 µM; in [5] it was 0.987 µM and 3.19 µM; in assay [6], 9.76 µM and 15 µM. Besides, the GI50 in assay [7] is 6.53 µM; in [8], 7.46 µM and 9.74 µM; in assay [9] it was 6.98 µM and 4.68 µM; in assay [10] it was 15.8 µM and 7.26 µM. Further, the TGI is 57.8 µM and 96.2 µM and 51 µM in [1]; > 80.9 µM and 133 µM and > 100 µM in assay [2]; 37.8 µM and > 76.6 µM and 56.6 µM in assay [3]; 194 µM and > 100 µM in assay [4]; > 41.5 µM and 175 µM and > 100 µM in assay [5]; 38.9 µM and 70.8 µM and 70.3 µM in [6]. The TGI in assay [7] is 37.4 µM and 65.2 µM and 45.9 µM; in [8], > 90.5 µM and 204 µM and > 100 µM; in assay [9], > 80.5 µM and 231 µM and > 100 µM; in [10], 81.2 µM and 101 µM and > 100 µM.
Regarding `Cc1ccc(C2C3=C(N=c4s/c(=C/c5ccc(Br)cc5)c(=O)n42)c2ccc4ccccc4c2OCC3)cc1` (centres undefined), the GI50 in assay [1], in [2], in assay [3], in assay [4], in [5] and in assay [6] was over 100 µM each time. Moreover, the GI50 in assay [7], in [8], in assay [9] and in assay [10] was over 100 µM each time. Also, the TGI in assay [1], in assay [2], in assay [3], in assay [4], in assay [5] and in [6] was over 100 µM throughout. Further, the TGI in assay [7], in assay [8], in assay [9] and in [10] was over 100 µM each time.
As for `C(=C\c1nccc2c1[nH]c1ccccc12)/c1ccccc1`, the GI50 in [1] is 4.36 µM; in assay [2], 2.96 µM; in assay [3], 2.07 µM; in assay [4], 2.35 µM; in [5], 2.25 µM; in [6], 2.31 µM. The GI50 was 1.07 µM in assay [7], 4.4 µM in assay [8], 2.39 µM in assay [9] and 1.58 µM in assay [10]. The TGI turned out to be 15.9 µM in assay [1]; 9.43 µM in [2]; 5.55 µM in assay [3]; 9.34 µM in assay [4]; 37.2 µM in assay [5]; 6.65 µM in assay [6]. In addition, the TGI in [7] is 3.92 µM; in [8], 48.4 µM; in assay [9], 18.1 µM; in [10], 17.4 µM.
Regarding `Nc1ccc2ccc(NS(=O)(=O)N3CCCCC3)cc2c1`, the GI50 was 0.176 µM in [1]; 0.707 µM in assay [2]; 0.327 µM in assay [3]; 0.396 µM in [4]; 0.354 µM in assay [5]; 0.507 µM in assay [7]. The GI50 in [8] was 0.797 µM; in [9] it was 0.336 µM; in assay [10], 1.7 µM. The TGI in [1] is 0.872 µM; in assay [2] it was over 24.8 µM; in assay [3], over 100 µM; in assay [4], 5.99 µM; in [5] it was over 100 µM; in assay [7], over 49.6 µM. In addition, the TGI in assay [8], in assay [9] and in assay [10] was over 100 µM each time.
Turning to `Cc1cc(C)cc(Nc2ccc([N+](=O)[O-])c(NCCN3CCOCC3)n2)c1`, the GI50 in assay [1] is 0.000606 µM; in [2], 0.00435 µM and 0.0287 µM; in assay [3] it was 0.00261 µM; in assay [4] it was 0.00306 µM and 0.0165 µM; in assay [6] it was 0.000367 µM; in assay [7], 0.00455 µM and 0.0366 µM. Further, the GI50 in [9] is 0.00176 µM and 0.0147 µM. Also, the TGI is 0.00915 µM and 0.0676 µM in assay [1]; over 100 µM in [2]; 0.00926 µM in assay [3]; 48.4 µM in [4]; over 100 µM in assay [5]; 0.00192 µM in assay [6]. Moreover, the TGI in assay [7], in assay [9] and in assay [10] was over 100 µM each time.
